How the values were obtained:
[1] = system: hepatic glucose production, VPC and VCS (InsP3R-I signaling); test: Acute 2 hr glucagon infusion in WT and liver-specific InsP3R-I KO mice; type: in vivo, mouse
Description: All protocols were approved by the Yale University Animal Care and Use Committee. Liver-specific InsP3R-I KO mice were generated as described (Feriod, et al. Hepatology Communications 1, 23-35, 2017) and in all experiments, littermates were studied at 10-12 weeks of age. They were fed standard chow (Teklad #2018) and housed on a 12 hr light/dark cycle in the Yale Animal Resources Center. To knock down ATGL in a liver-specific manner, an adeno-associated virus targeting ATGL (Vector BioLabs, 10^12 gc per mouse) was administered by retro-orbital injection four weeks prior to studies. Male mice were used for in vivo studies, while female mice were used for in vitro studies, unless otherwise specified. One week prior to in vivo studies, mice underwent surgery under isoflurane anesthesia to place a catheter in the jugular vein. Post-surgical recovery was confirmed by regaining the pre-surgical body weight prior to any in vivo studies. They were fasted overnight, unless otherwise stated, prior to in vivo studies. […] Mice were euthanized using IV pentobarbital at the conclusion of the terminal study.
In the rat studies, blood was collected from the jugular venous catheter. In both species, samples were immediately centrifuged (12,000 rpm) to separate plasma from red blood cells. PINTA analysis of hepatic mitochondrial fluxes was employed in both rats and mice (see Example 1). Briefly, mice were infused with a two-hour primed (5 min, 3×)-continuous infusion of [3-^13C] lactate (40 μmol kg^−1 min^−1) and [1,2,3,4,5,6,6-^2H7] glucose (0.1 mg kg^−1 min^−1). Rats were infused with lactate at the same rate, as well as [3-^3H] glucose (0.1 mCi kg^−1 min^−1). At the conclusion of the study, animals were euthanized with IV pentobarbital.
Total glucose turnover (i.e. hepatic glucose production) was measured by determining the specific activity of [^3H] glucose in plasma using a scintillation counter, and the VPC/VHGP ratio was calculated using the equation
[formula] and calculated absolute VCS by dividing VPC by VPC/VCS. The derivations of each equation are described in detail in Example 1. The possible contribution of [^13C] bicarbonate to label the TCA cycle was corrected for as follows. Liver [^13C] bicarbonate enrichment was measured by GC-MS (HP-1 column: 12 m×0.2 mm×0.33 μm film, isothermal: 110° C.). Liver tissue (˜[…]) was placed in a GC-MS vial, purged with N2 gas, and sealed. To each sample, a saturated aqueous solution of citric acid (50 μl) was injected into the vial through the cap. After ten minutes, CO2 was sampled from the head-space and ions with m/z 44 and 45 daltons were monitored using electron impact ionization.
Plasma glucose concentrations were measured using a YSI Glucose Analyzer. […] Plasma NEFA concentrations were measured using the Wako NEFA assay, while plasma glycerol and plasma and liver amino acid concentrations were measured by GC/MS. […] Protein concentrations were measured by Western blot, using antibodies from Santa Cruz (PC, PEPCK, CAMKII), Cell Signaling (ATGL, pCAMKIV, CAMKIV, pCRTC2, CRTC2, pACC, ACC, pAMPK, AMPK, pHSL, HSL, GAPDH, and β-actin), Novus Biologicals (pCAMKII), Abcam (pATGL), LSBio (pInsP3R-I), and BD Transduction Laboratories (InsP3R-II, InsP3R-III, PKCε).

[2] = system: primary mouse hepatocytes; test: In vitro glucose production, VPC and lipolysis in isolated hepatocytes; type: cell-based
Method in brief: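 Primary mouse hepatocytes were plated and cultured overnight in low-glucose DMEM, with 10% FBS for glucose production or serum-free 0.5% BSA medium for lipolysis. Media were then collected after 8 hr at 37° C for glucose, NEFA and glycerol, and VPC was derived as the PINTA VPC/VEGP ratio × glucose production. Agents were present through the 8-hr assay, and values were normalized to total protein and expressed as fold change vs vehicle.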

[3] = isolated WT hepatocytes, 100 nM glucagon, 8 hr

Substance: glucagon
- hepatic CAMKII phosphorylation ([1]; InsP3R-I-dependent, CAMKIV not): stimulated
- increases in rates of HGP ([1]; PINTA, acute glucagon infusion): ~25%
- increase in InsP3R-I phosphorylation ([1]; WT livers): two-fold
- increase in hepatic mitochondrial oxidation (VCS) ([1]; WT mice): five-fold
- plasma non-esterified fatty acid (NEFA) concentrations ([1]; WT mice): reduced
- increase in hepatic ATGL S406 phosphorylation ([1]; WT mice in vivo, not InsP3R-I KO): three-fold
- plasma glucose and insulin concentrations ([1]; WT mice, acute glucagon infusion): modest increase
- increase in hepatic pyruvate dehydrogenase flux (VPDH) ([1]; WT mice, not InsP3R-I KO): 7 fold
- hepatic malonyl-CoA content ([1]; acute glucagon infusion): independently of any changes
- increases in hepatic long-chain acyl-CoA and acetyl-CoA content ([1]; acute glucagon infusion): 35-60%
- VPK as percentage of hepatic VPC flux ([1]; acute glucagon study): 15-35%
- cAMP concentrations, protein kinase A activity, CRTC2 phosphorylation (liver) ([1]; both genotypes): increased
- hormone-sensitive lipase (HSL) phosphorylation ([1]; both genotypes): increased
- hepatic mitochondrial oxidation ([1]; liver-specific InsP3R-I knockout mice): failed to exhibit any increases
- pyruvate kinase flux (VPK) ([1]; mice infused with glucagon): without any difference
- increases in NEFA and glycerol production ([2]; WT hepatocytes, glucagon, not InsP3R-I deficient): 60-100%
- increase in VPC flux [2, 3]: two-fold
- increase in glucose production [2, 3]: two-fold

From patent US11484608B2, “Non-invasive assessment of hepatic mitochondrial metabolism by positional isotopomer NMR tracer analysis (PINTA)” (YALE UNIVERSITY, priority 2017, dated 2022)
